Assay results taken from patent publication US8962596B2 (Array BioPharma Inc., priority 2010, dated 2015).

Key:
Format in all cases: biochemical
JAK1 = molecular target: T1, JAK1 (Homo sapiens, UniProt P23458); experiment: JAK1 Inhibition Assay (Omnia kinase fluorescence peptide substrate assay); conditions: averaged IC50 ranges; assay of Example B; 40 μM (Km app) or 1 mM ATP, 15 nM JAK1
T1 construct: purchased Invitrogen Corporation, Carlsbad, Calif; PV4775

JAK2 = molecular target: T2, JAK2 (Homo sapiens, UniProt O60674); experiment: JAK2 Inhibition Assay (Omnia kinase fluorescence peptide substrate assay); conditions: averaged IC50 ranges; assay of Example C; 25 μM (Km app) or 1 mM ATP, 5 nM JAK2
T2 construct: purchased Invitrogen Corporation, Carlsbad, Calif; PV4288
T2 sequence (O60674 whole entry): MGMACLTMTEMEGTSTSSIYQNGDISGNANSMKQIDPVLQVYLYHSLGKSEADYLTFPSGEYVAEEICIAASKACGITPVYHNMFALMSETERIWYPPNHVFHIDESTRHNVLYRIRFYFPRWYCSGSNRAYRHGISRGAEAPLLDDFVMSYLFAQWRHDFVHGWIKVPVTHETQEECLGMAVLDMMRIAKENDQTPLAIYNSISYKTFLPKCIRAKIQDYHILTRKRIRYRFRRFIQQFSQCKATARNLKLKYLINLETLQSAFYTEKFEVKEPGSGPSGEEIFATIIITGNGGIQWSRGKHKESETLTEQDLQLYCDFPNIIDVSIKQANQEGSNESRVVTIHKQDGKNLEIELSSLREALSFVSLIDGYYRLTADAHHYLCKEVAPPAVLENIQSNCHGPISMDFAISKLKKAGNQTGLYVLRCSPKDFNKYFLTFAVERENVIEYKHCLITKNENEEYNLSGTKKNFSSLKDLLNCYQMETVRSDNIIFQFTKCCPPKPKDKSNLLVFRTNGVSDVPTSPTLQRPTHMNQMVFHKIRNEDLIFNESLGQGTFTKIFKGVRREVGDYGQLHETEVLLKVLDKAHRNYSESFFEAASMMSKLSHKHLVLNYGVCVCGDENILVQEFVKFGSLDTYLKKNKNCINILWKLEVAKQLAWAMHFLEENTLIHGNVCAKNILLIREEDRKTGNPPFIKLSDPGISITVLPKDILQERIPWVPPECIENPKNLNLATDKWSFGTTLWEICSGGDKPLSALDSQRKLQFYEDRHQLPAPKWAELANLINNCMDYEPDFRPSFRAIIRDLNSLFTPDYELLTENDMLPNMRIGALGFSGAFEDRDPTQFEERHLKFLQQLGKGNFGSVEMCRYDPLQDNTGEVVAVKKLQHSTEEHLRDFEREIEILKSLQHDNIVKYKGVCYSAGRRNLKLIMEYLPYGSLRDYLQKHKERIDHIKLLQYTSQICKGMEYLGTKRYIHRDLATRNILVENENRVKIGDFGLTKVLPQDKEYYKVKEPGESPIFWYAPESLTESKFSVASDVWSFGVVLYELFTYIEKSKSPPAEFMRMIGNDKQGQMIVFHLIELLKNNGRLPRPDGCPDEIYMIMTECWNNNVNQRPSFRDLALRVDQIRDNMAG
How it was run: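 5 nM JAK2 phosphorylated 10 μM Omnia Y7 peptide with ATP at 25 μM (Km app) or 1 mM, in 25 mM HEPES pH 7.4, 10 mM MgCl2, 0.01% Triton X-100, 1 mM DTT, 2% DMSO. Fluorescence (360/485 nm) was read every 50 s for 45 min. 10-point 3-fold series from 10 μM; POC versus uninhibited and background controls, 4-parameter logistic IC50.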

Human Tyk2 kinase domain = molecular target: T3, Human Tyk2 kinase domain (Homo sapiens, UniProt P29597); experiment: Tyk2 Inhibition Assay (Omnia kinase fluorescence peptide substrate assay); conditions: averaged IC50 ranges; assay of Example A; 10 μM (Km app) or 1 mM ATP, 2 nM Tyk2
T3 construct: comprising amino acids 886 to 1187 with 10 additional histidine residues; 10xHis (histidine tag) (C, cleaved yes); made in house
T3 sequence (P29597 886-1187): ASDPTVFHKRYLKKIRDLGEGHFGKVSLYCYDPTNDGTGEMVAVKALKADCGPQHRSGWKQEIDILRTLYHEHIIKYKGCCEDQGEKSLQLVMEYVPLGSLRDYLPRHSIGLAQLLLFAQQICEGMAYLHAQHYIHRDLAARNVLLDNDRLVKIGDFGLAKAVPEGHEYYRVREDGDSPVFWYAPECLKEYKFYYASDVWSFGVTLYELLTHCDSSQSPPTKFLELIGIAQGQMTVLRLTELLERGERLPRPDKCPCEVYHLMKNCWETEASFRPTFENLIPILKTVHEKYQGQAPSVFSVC
How it was run: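 2 nM His-tag-cleaved kinase domain (aa 886–1187) with 8 μM Omnia Y12 peptide, 10 μM (Km app) or 1 mM ATP, pH 7.4 HEPES/10 mM MgCl2, 2% DMSO. Fluorescence (ex 360/em 485 nm) every 50 s for 45 min; IC50 from 4-parameter fit of POC, top dose 10 μM.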

JAK3 = molecular target: T4, JAK3 (Homo sapiens, UniProt P52333); experiment: JAK3 Inhibition Assay (Omnia kinase fluorescence peptide substrate assay); conditions: averaged IC50 ranges; assay of Example D; 10 μM (Km app) or 1 mM ATP, 2.5 nM JAK3
T4 construct: purchased Invitrogen Corporation, Carlsbad, Calif; PV4080
T4 sequence (P52333 1-1124): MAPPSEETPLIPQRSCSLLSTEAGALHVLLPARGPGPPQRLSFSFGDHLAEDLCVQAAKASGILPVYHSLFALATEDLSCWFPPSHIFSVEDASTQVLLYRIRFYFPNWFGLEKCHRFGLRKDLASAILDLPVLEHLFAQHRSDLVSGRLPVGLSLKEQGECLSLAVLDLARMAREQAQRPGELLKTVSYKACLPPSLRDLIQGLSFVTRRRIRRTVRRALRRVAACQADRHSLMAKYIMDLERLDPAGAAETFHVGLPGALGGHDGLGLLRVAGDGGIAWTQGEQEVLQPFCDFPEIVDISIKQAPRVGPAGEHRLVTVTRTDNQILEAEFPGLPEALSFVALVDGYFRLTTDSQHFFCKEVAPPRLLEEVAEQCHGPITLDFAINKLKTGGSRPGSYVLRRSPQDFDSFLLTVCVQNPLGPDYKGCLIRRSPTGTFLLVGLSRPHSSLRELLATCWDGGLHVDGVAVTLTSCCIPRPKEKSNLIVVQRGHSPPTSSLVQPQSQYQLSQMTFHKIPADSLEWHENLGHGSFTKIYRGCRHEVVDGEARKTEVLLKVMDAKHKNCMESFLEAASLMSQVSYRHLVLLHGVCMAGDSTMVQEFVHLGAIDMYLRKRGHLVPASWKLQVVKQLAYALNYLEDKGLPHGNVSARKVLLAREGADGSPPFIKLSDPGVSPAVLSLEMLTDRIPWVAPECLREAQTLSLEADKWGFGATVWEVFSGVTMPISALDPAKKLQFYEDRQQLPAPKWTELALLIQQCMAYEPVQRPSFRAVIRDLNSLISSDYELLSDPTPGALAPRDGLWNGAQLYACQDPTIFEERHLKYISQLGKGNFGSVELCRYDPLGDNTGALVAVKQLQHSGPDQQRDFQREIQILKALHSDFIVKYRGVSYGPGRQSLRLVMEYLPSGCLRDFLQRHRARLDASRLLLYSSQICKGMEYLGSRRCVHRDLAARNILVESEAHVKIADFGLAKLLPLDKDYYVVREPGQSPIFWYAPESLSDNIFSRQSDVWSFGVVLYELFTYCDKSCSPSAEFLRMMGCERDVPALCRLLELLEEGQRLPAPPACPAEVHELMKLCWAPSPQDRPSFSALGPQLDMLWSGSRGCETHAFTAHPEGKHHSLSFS
How it was run: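 Kinase at 2.5 nM with 10 µM Omnia Y7 peptide and 10 µM (Km app) or 1 mM ATP in 25 mM HEPES pH 7.4, 10 mM MgCl2, 1 mM DTT, 0.01% Triton X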

T1 sequence (P23458 whole entry): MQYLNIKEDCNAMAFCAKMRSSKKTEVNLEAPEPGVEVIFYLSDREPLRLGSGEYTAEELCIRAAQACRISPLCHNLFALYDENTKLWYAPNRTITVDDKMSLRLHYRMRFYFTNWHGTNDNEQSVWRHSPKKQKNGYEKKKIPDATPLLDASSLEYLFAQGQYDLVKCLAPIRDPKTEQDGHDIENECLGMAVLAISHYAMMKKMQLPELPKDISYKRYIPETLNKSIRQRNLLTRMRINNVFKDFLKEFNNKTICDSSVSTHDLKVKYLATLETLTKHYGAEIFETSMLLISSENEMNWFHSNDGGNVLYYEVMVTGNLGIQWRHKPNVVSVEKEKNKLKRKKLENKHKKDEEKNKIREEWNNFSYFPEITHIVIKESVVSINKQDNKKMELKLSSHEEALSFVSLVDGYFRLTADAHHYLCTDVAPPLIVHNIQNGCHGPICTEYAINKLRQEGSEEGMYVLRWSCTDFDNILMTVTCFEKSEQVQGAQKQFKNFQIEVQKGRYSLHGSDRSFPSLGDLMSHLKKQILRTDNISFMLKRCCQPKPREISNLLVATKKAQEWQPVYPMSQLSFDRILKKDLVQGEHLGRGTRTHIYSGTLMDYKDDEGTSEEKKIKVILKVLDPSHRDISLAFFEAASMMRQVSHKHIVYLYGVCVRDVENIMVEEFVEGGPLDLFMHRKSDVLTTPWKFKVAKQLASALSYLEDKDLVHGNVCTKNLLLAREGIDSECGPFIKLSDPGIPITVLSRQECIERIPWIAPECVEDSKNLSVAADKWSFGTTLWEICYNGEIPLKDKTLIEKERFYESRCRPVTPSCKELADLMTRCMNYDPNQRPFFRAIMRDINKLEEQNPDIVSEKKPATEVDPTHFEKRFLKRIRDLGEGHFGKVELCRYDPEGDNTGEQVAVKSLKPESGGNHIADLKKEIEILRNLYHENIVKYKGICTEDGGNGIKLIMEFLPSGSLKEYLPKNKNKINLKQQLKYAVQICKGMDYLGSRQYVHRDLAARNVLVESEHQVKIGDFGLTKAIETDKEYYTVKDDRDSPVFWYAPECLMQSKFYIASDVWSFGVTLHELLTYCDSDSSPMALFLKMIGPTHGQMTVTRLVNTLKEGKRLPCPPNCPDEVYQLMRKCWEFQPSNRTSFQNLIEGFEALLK

Row | Compound | IC50 (JAK1) [µM] | IC50 (JAK2) [µM] | IC50 (Human Tyk2 kinase domain) [µM] | IC50 (JAK3) [µM]
1 | Cn1cc(-c2cc3nccn3c(-c3cnn(C4(CC#N)CN(CC5CCC5)C4)c3)n2)cn1 [Example 87, 2-(1-(cyclobutylmethyl)-3-(4-(7-(1-methyl-1H-pyrazol-4-yl)imidazo[1,2-c]pyrimidin-5-yl)-1H-pyrazol-1-yl)azetidin-3-yl)acetonitrile] | > 1 | 0.1 to 1 | 0.01 to 0.1 | > 1
2 | Cn1cc(-c2cc3nccn3c(-c3cnn(C4(CC#N)CN(c5ncccn5)C4)c3)n2)cn1 [Example 68, 2-(3-(4-(7-(1-Methyl-1H-pyrazol-4-yl)imidazo[1,2-c]pyrimidin-5-yl)-1H-pyrazol-1-yl)-1-(pyrimidin-2-yl)azetidin-3-yl)acetonitrile] | > 1 | > 1 | 0.1 to 1 | > 1
3 | Cn1cc(-c2cc3nccn3c(-c3cnn(C(CC#N)C4CC4)c3)n2)cn1 (centres unmarked) [Example 2, 3-Cyclopropyl-3-(4-(7-(1-methyl-1H-pyrazol-4-yl)imidazo[1,2-c]pyrimidin-5-yl)-1H-pyrazol-1-yl)propanenitrile] | 0.1 to 1 | 0.01 to 0.1 | < 0.01 | > 1
4 | Cc1nn(C(CC#N)C2CCCC2)cc1-c1nc(-c2ccc(N3CCOCC3)cc2)cc2nccn12 (centres unmarked) [Example 121, 3-Cyclopentyl-3-(3-methyl-4-(7-(4-morpholinophenyl)imidazo[1,2-c]pyrimidin-5-yl)-1H-pyrazol-1-yl)propanenitrile] | 0.1 to 1 | 0.01 to 0.1 | < 0.01 | > 1
5 | Cc1nnc(-c2cc3nccn3c(-c3cnn(C(CC#N)C4CC4)c3)n2)s1 (centres unmarked) [Example 45, 3-Cyclopropyl-3-(4-(7-(5-methyl-1,3,4-thiadiazol-2-yl)imidazo[1,2-c]pyrimidin-5-yl)-1H-pyrazol-1-yl)propanenitrile] | > 1 | > 1 | 0.1 to 1 | > 1
6 | Cn1cc(-c2cc3nccn3c(-c3cnn(C4(CC#N)CN(C(=O)OC(C)(C)C)C4)c3)n2)cn1 [Example 61, Tert-butyl 3-(cyanomethyl)-3-(4-(7-(1-methyl-1H-pyrazol-4-yl)imidazo[1,2-c]pyrimidin-5-yl)-1H-pyrazol-1-yl)azetidine-1-carboxylate] | > 1 | 0.1 to 1 | 0.1 to 1 | > 1
7 | N#CCC(C1CCCC1)n1cc(-c2nc(-c3ccc(N4CCOCC4)cc3)cc3nccn23)cn1 (single isomer, unassigned) [Example 114, 3-cyclopentyl-3-(4-(7-(4-morpholinophenyl)imidazo[1,2-c]pyrimidin-5-yl)-1H-pyrazol-1-yl)propanenitrile] | 0.1 to 1 | 0.01 to 0.1 | < 0.01 | 0.1 to 1

Further lines, results first:

Row | IC50 (JAK1) [µM] | IC50 (JAK2) [µM] | IC50 (Human Tyk2 kinase domain) [µM] | IC50 (JAK3) [µM] | Compound
8 | 0.01 to 0.1 | 0.01 to 0.1 | < 0.01 | > 1 | N#CCCn1cc(-c2nc(-c3ccc(N4CCOCC4)cc3)cc3nccn23)cn1 [Example 120, 3-(4-(7-(4-morpholinophen-yl)imidazo[1,2-c]pyrimidin-5-yl)-1H-pyrazol-1-yl)propanenitrile]
9 | 0.1 to 1 | 0.01 to 0.1 | 0.01 to 0.1 | > 1 | Cn1cc(-c2cc3nccn3c(-c3cnn(C(CC#N)c4ccccn4)c3)n2)cn1 (centres unmarked) [Example 6, 3-(4-(7-(1-methyl-1H-pyrazol-4-yl)imidazo[1,2-c]pyrimidin-5-yl)-1H-pyrazol-1-yl)-3-(pyridin-2-yl)propanenitrile]
10 | 0.01 to 0.1 | 0.01 to 0.1 | < 0.01 | 0.1 to 1 | Cn1cc(-c2cc3nccn3c(-c3cnn(C4(CC#N)CCN(S(=O)(=O)C(F)(F)F)C4)c3)n2)cn1 (centres unmarked) [Example 133, 2-(3-(4-(7-(1-methyl-1H-pyrazol-4-yl)imidazo[1,2-c]pyrimidin-5-yl)-1H-pyrazol-1-yl)-1-(trifluoromethylsulfonyl)pyrrolidin-3-yl)acetonitrile]
11 | 0.01 to 0.1 | 0.01 to 0.1 | < 0.01 | 0.1 to 1 | Cn1cc(-c2cc3nccn3c(-c3cnn(C(CC#N)c4ccccc4)c3)n2)cn1 (centres unmarked) [Example 11, 3-(4-(7-(1-methyl-1H-pyrazol-4-yl)imidazo[1,2-c]pyrimidin-5-yl)-1H-pyrazol-1-yl)-3-phenylpropanenitrile]
12 | 0.01 to 0.1 | 0.01 to 0.1 | 0.01 to 0.1 | 0.1 to 1 | CC(C#N)Cn1cc(-c2nc(-c3ccc(N4CCOCC4)cc3)cc3nccn23)cn1 (centres unmarked) [Example 119, 2-methyl-3-(4-(7-(4-morpholinophenyl)imidazo[1,2-c]pyrimidin-5-yl)-1H-pyrazol-1-yl)propanenitrile]
13 | 0.01 to 0.1 | 0.01 to 0.1 | < 0.01 | > 1 | COc1ccc(-c2cc3nccn3c(-c3cnn(C4(CC#N)CN(S(=O)(=O)C5CC5)C4)c3)n2)cc1 [Example 159, 2-(1-(cyclopropylsulfonyl)-3-(4-(7-(4-methoxyphenyl)imidazo[1,2-c]pyrimidin-5-yl)-1H-pyrazol-1-yl)azetidin-3-yl)acetonitrile]
14 | 0.01 to 0.1 | 0.01 to 0.1 | < 0.01 | > 1 | Cc1ncc(-c2cc3nccn3c(-c3cnn(C4(CC#N)CN(S(=O)(=O)C5CC5)C4)c3)n2)s1 [Example 140, 2-(1-(cyclopropylsulfonyl)-3-(4-(7-(2-methylthiazol-5-yl)imidazo[1,2-c]pyrimidin-5-yl)-1H-pyrazol-1-yl)azetidin-3-yl)acetonitrile]
15 | < 0.01 | < 0.01 | < 0.01 | 0.1 to 1 | N#CCC(C1CCCC1)n1cc(-c2nc(-c3ccc(N4CCOCC4)cc3)cc3nccn23)cn1 (single isomer, unassigned) [Example 115, 3-cyclopentyl-3-(4-(7-(4-morpholinophenyl)imidazo[1,2-c]pyrimidin-5-yl)-1H-pyrazol-1-yl)propanenitrile]
16 | 0.01 to 0.1 | 0.01 to 0.1 | < 0.01 | 0.1 to 1 | Cn1cc(-c2cc3nccn3c(-c3cnn(C(CC#N)c4cccnc4)c3)n2)cn1 (centres unmarked) [Example 7, 3-(4-(7-(1-methyl-1H-pyrazol-4-yl)imidazo[1,2-c]pyrimidin-5-yl)-1H-pyrazol-1-yl)-3-(pyridin-3-yl)propanenitrile]
17 | 0.01 to 0.1 | 0.01 to 0.1 | < 0.01 | 0.1 to 1 | Cn1cc(-c2cc3nccn3c(-c3cnn(C(CC#N)CC#N)c3)n2)cn1 [Example 1, 3-(4-(7-(1-methyl-1H-pyrazol-4-yl)imidazo[1,2-c]pyrimidin-5-yl)-1H-pyrazol-1-yl)pentanedinitrile]
